Test results from paper PMC9578396, “Intrinsic Antibacterial Activity of Xeruborbactam In Vitro: Assessing Spectrum and Mode of Action” (Antimicrobial Agents and Chemotherapy, 2022).
Like-named read-outs stand apart in the source and are kept apart here.

What was measured:
[1] = system: Klebsiella pneumoniae; assay: microbe, parasite or virus in culture; format: cell-based
Method in brief: (§1)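 MICs by CLSI broth microdilution in in-house panels. Strains tested were engineered strains carrying porin and efflux mutation combinations, KPC-producing clinical isolates and derivatives cured of KPC plasmids, and KPC-producing clinical isolates enriched for porin mutations.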

[2] = system: Acinetobacter baumannii; assay: Broth microdilution MIC (CLSI), Acinetobacter baumannii; format: cell-based; settings: Acinetobacter baumannii, read-out: MIC
Method in brief: as §1

[3] = system: Pseudomonas aeruginosa; assay: Broth microdilution MIC (CLSI), Pseudomonas aeruginosa; format: cell-based; settings: Pseudomonas aeruginosa, strain PAM1154 (Fig. 6); read-out: MIC
Method in brief: as §1

[4] = system: K. pneumoniae strain KPM1026a; assay: Fluorescence microscopy, cellular morphology; format: cell-based, Klebsiella pneumoniae; settings: treated at 1× and 2× MIC, 1 to 2 h, 30°C
Protocol: (§2) Single colonies of K. pneumoniae strain KPM1026a, A. baumannii strain ATCC 17978, and P. aeruginosa strain PAM1154 were picked from LB agar plates, inoculated in cation-adjusted Mueller-Hinton broth (CA-MHB), and incubated overnight at 30°C with rolling. Overnight cultures were diluted into fresh CA-MHB and incubated at 30°C, with rolling, until they reached an OD600 of ≈0.12 to 0.15 (equivalent to ~2 × 10^8 CFU/mL). Samples were then treated with compounds and incubated at 30°C, with rolling. After 1 or 2 h of treatment, cells were collected and stained with a dye mix containing FM4-64 (1 μg/mL), DAPI (4′,6-diamidino-2-phenylindole) (2 μg/mL), and SYTOX green (0.5 μM) (Molecular Probes, Invitrogen, or Thermo Fisher Scientific). Cells were transferred onto an agarose pad containing 1.2% agarose and 20% LB medium for microscopy. Microscopy was performed as previously described ([34]).

[5] = system: A. baumannii strain ATCC 17978; assay: Fluorescence microscopy, cellular morphology; format: cell-based, Acinetobacter baumannii; settings: xeruborbactam, meropenem 1× and 2× MIC; aztreonam 2× MIC; amdinocillin 2 μg/mL
Protocol: as §2

CC1(C)S[C@@H]2[C@H](/N=C/N3CCCCCC3)C(=O)N2[C@H]1C(=O)O [Mecillinam]
MIC ([1]; KPM1026a (no beta-lactamase), xeruborbactam 0 µg/ml): 0.25 µg/mL | MIC ([1]; KPM1026a, xeruborbactam 2 µg/ml): 0.25 µg/mL | MIC ([1]; KPM1026a, xeruborbactam 4 µg/ml): 0.125 µg/mL | MIC ([1]; KPM1026a, xeruborbactam 8 µg/ml): 0.06 µg/mL | MIC ([1]; Klebsiella pneumoniae, KPM1026a, alone, read-out: MIC): 0.25 µg/mL | MIC ([1]; Klebsiella pneumoniae, KPM1026a, parent, read-out: MIC): 0.25 µg/mL | MIC ([1]; Klebsiella pneumoniae, KPM3532 (TolQ::M189K), alone): > 64 µg/mL | MIC ([1]; Klebsiella pneumoniae, KPM3532, TolQ::M189K): > 64 µg/mL | MIC ([1]; Klebsiella pneumoniae, KPM3534 (TolQ::S31F), alone): > 64 µg/mL | MIC ([1]; Klebsiella pneumoniae, KPM3534, TolQ::S31F): > 64 µg/mL | MIC ([1]; Klebsiella pneumoniae, KPM4235, TolQ::IP(183–1844)PR): > 64 µg/mL | MIC ([1]; Klebsiella pneumoniae, KPM4236, TolQ::TAA at aa 103): > 64 µg/mL | MIC ([1]; Klebsiella pneumoniae, KPM4238, TolQ::S25F): > 64 µg/mL | MIC ([1]; Klebsiella pneumoniae, KPM4239, TolQ::S28F): > 64 µg/mL | MIC ([1]; Klebsiella pneumoniae, KPM4240, TolQ::S25Y): > 64 µg/mL | MIC ([1]; Klebsiella pneumoniae, strain KPM1026a measured at 30°C (Fig. 6), read-out: MIC): 128 µg/mL | MIC ([2]; ATCC17978, strain ATCC 17978 (Fig. 6)): 128 µg/mL | MIC ([2]; ATCC17978, strain ATCC 17978): > 256 µg/mL | MIC [3]: 128 µg/mL | cellular morphology [4]: cell rounding | cellular morphology [5]: bacterial cell rounding but not swelling
